Results reported in patent US20220386606A1, “SPECIFICALLY SUBSTITUTED 3-PHENYL-5-SPIROCYCLOPENTYL-3-PYRROLIN-2-ONES AND THEIR USE AS HERBICIDES” (Bayer Aktiengesellschaft, priority 2019, published 2022).

Columns and labels:
DIGSA [1] = assay: Post-emergence herbicidal action against DIGSA; format: in vivo, Digitaria sanguinalis; details: 80 g/ha, visual assessment about 3 weeks after treatment vs untreated controls
Summary of the method: (§1)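 Herbicidal action is rated visually in percent against untreated controls, where 100% means dead plants and 0% means no difference. Ratings come about 3 weeks after foliar spraying of one-leaf-stage plants with aqueous WP or EC preparations plus 0.2% wetting agent at 600 to 800 l/ha.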

ALOMY [2] = assay: Pre-emergence herbicidal action against ALOMY; format: in vivo, Alopecurus myosuroides; details: 320 g/ha, scored visually after 3 weeks vs untreated controls
Summary of the method: (§2)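 Visual percent damage, rated 3 weeks after treatment against untreated plants (0% like control, 100% plants dead). Compounds, as wettable powders or emulsion concentrates, were sprayed pre-emergence onto soil covering seeds sown in sandy loam, at 600 to 800 L/ha water with 0.2% wetting agent; pots kept in greenhouse.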

ECHCG [3] = assay: Pre-emergence herbicidal action against ECHCG; format: in vivo, Echinochloa crus-galli; details: 320 g/ha, scored visually after 3 weeks vs untreated controls
Summary of the method: as §2

DIGSA [4] = assay: Pre-emergence herbicidal action against DIGSA; format: in vivo, Digitaria sanguinalis; details: 320 g/ha, scored visually after 3 weeks vs untreated controls
Summary of the method: as §2

SETVI [5] = assay: Pre-emergence herbicidal action against SETVI; format: in vivo, Setaria viridis; details: 320 g/ha, scored visually after 3 weeks vs untreated controls
Summary of the method: as §2

LOLRI [6] = assay: Post-emergence herbicidal action against LOLRI; format: in vivo, Lolium rigidum; details: 80 g/ha, visual assessment about 3 weeks after treatment vs untreated controls
Summary of the method: as §1

SETVI [7] = assay: Post-emergence herbicidal action against SETVI; format: in vivo, Setaria viridis; details: 80 g/ha, visual assessment about 3 weeks after treatment vs untreated controls
Summary of the method: as §1

VERPE = assay: Pre-emergence herbicidal action against VERPE; format: in vivo, Veronica persica; details: 320 g/ha
Source text: (§3) Seeds of monocotyledonous and dicotyledonous weed plants and crop plants are laid out in sandy loam soil in wood-fiber pots and covered with soil. The compounds of the invention, formulated in the form of wettable powders (WP) or as emulsion concentrates (EC), are then applied to the surface of the covering soil as aqueous suspension or emulsion at a water application rate equating to 600 to 800 L/ha with addition of 0.2% wetting agent.
(§4) After the treatment, the pots are placed in a greenhouse and kept under good growth conditions for the trial plants. The damage to the test plants is scored visually after a test period of 3 weeks by comparison with untreated controls (herbicidal activity in percent (%): 100% activity=the plants have died, 0% activity=like control plants).

ALOMY [8] = assay: Post-emergence herbicidal action against ALOMY; format: in vivo, Alopecurus myosuroides; details: 80 g/ha, visual assessment after about 3 weeks
Summary of the method: as §1

AVEFA [9] = assay: Pre-emergence herbicidal action against AVEFA; format: in vivo, Avena fatua; details: 320 g/ha, scored visually after 3 weeks vs untreated controls
Summary of the method: as §2

VIOTR = assay: Pre-emergence herbicidal action against VIOTR; format: in vivo, Viola tricolor; details: 320 g/ha
Source text: as §3, §4

LOLRI [10] = assay: Pre-emergence herbicidal action against LOLRI (Table 8, titled post-emergence at 320 g/ha); format: in vivo, Lolium rigidum; details: table stands in the pre-emergence section
Summary of the method: as §2

AVEFA [11] = assay: Post-emergence herbicidal action against AVEFA; format: in vivo, Avena fatua; details: 80 g/ha, visual assessment after about 3 weeks
Summary of the method: as §1

ECHCG [12] = assay: Post-emergence herbicidal action against ECHCG; format: in vivo, Echinochloa crus-galli; details: 80 g/ha, visual assessment about 3 weeks after treatment vs untreated controls
Summary of the method: as §1

AMARE = assay: Pre-emergence herbicidal action against AMARE; format: in vivo, Amaranthus retroflexus; details: 320 g/ha
Source text: as §3, §4

Compound | Post-emergence action against DIGSA in % (DIGSA [1]) [%] | Pre-emergence action against ALOMY in % (ALOMY [2]) [%] | Pre-emergence action against ECHCG in % (ECHCG [3]) [%] | Pre-emergence action against DIGSA in % (DIGSA [4]) [%] | Pre-emergence action against SETVI in % (SETVI [5]) [%] | Post-emergence action against LOLRI in % (LOLRI [6]) [%] | Post-emergence action against SETVI in % (SETVI [7]) [%] | Pre-emergence action against VERPE in % (VERPE) [%] | Post-emergence action against ALOMY in % (ALOMY [8]) [%] | Pre-emergence action against AVEFA in % (AVEFA [9]) [%] | Pre-emergence action against VIOTR in % (VIOTR) [%] | Pre-emergence herbicidal action against LOLRI in % (LOLRI [10]) [%] | Post-emergence action against AVEFA in % (AVEFA [11]) [%] | Post-emergence action against ECHCG in % (ECHCG [12]) [%] | Pre-emergence action against AMARE in % (AMARE) [%]
CC#Cc1cc(C)c(C2=C(OC(=O)OCC)C3(CCC(COCC)C3)NC2=O)c(OC)c1 (stereo not shown) [Example P-48] | 100 | 100 | 100 | 100 | 100 | 100 | 100 | 80 | 100 | 100 | 100 | 100 | 90 | 100 | 
CC#Cc1cc(C)c(C2=C(OC(=O)C(C)C)C3(CCC(COC)C3)NC2=O)c(F)c1 (stereo not shown) [Example P-57] | 100 | 100 | 100 | 100 | 100 | 100 | 100 |  | 100 | 80 | 100 | 100 | 90 | 100 | 80
CC#Cc1cc(F)c(C2=C(OC(=O)OCC)C3(CCC(COCC)C3)NC2=O)c(OC)c1 (stereo not shown) [Example P-69] | 80 | 100 | 100 | 100 | 100 | 90 | 100 | 90 | 100 | 80 | 80 | 100 | 90 | 100 | 
C=CCOCC1CCC2(C1)NC(=O)C(c1c(F)cc(C#CC)cc1OC)=C2OC(=O)OCC (stereo not shown) [Example P-77] | 80 | 100 | 100 | 100 | 100 |  | 100 | 80 | 90 | 90 | 100 | 100 |  | 100 | 
C=CCOCC1CCC2(C1)NC(=O)C(c1c(C)cc(C#CC)cc1Br)=C2OC(=O)OCC (stereo not shown) [Example P-85] | 90 | 100 | 100 | 100 | 100 | 90 | 100 | 90 | 80 | 80 | 100 | 100 |  | 100 | 
C#CCOCC1CCC2(C1)NC(=O)C(c1c(F)cc(C#CC)cc1OC)=C2OC(=O)OCC (stereo not shown) [Example P-102] | 90 | 100 | 100 | 100 | 100 | 90 | 90 |  | 90 | 80 |  | 100 | 80 | 80 | 90
C#CCOCC1CCC2(C1)NC(=O)C(c1c(F)cc(C#CC)cc1OC)=C2OC(=O)OCC (stereo not shown) [Example P-104] | 90 | 100 | 100 | 100 | 100 |  | 100 |  | 100 |  |  | 100 | 90 | 100 | 100
